Assay results published in patent US8367873B2, “Phenyl-substituted bicyclooctane-1,3-dione derivatives” (Bayer Cropscience AG, priority 2008, dated 2013).

How the values were obtained:
Assay type in all cases: in vivo
Alopecurus myosuroides = experiment: Herbicidal post-emergence action; conditions: post-emergence method; for herbicidal effect against ALOMY (Alopecurus myosuroides): 80 g/ha; for pest or weed control at 80 g/ha: Alopecurus myosuroides, 504 h, read-out: herbicidal effect against ALOMY (Alopecurus myosuroides)
Description: (§1) Seeds of monocotylidonous and dicotylidonous weed and crop plants are placed in sandy loam in wood fibre pots, covered with soil and cultivated in a greenhouse under good growth conditions. Two to three weeks after sowing, the test plants are treated at the one-leaf stage. The test compounds, formulated as wettable powders (WP), are then with a water application rate of 600 l/ha (converted), with 0.2% of wetting agent added, sprayed onto the green parts of the plants in different amounts. After the test plants have been kept in the greenhouse under optimum growth conditions for about three weeks, the effect of the preparations is assessed visually in comparison to untreated controls (herbicidal effect in percent: 100% effect=the plants have died, 0% effect=like control plants).

Echinocloa crus-galli = experiment: Herbicidal post-emergence action; conditions: post-emergence method; for herbicidal effect against ECHCG (Echinochloa crus-galli): 80 g/ha; for pest or weed control at 80 g/ha: Echinochloa crus-galli, 504 h, read-out: herbicidal effect against ECHCG (Echinochloa crus-galli)
Description: as §1

Lolium multiflorum = experiment: Herbicidal post-emergence action; conditions: post-emergence method; for herbicidal effect against LOLMU (Lolium multiflorum): 80 g/ha; for pest or weed control at 80 g/ha: Lolium multiflorum, 504 h, read-out: herbicidal effect against LOLMU (Lolium multiflorum)
Description: as §1

Setaria viridis = experiment: Herbicidal post-emergence action; conditions: post-emergence method; for herbicidal effect against SETVI (Setaria viridis): 80 g/ha; for pest or weed control at 80 g/ha: Setaria viridis, 504 h, read-out: herbicidal effect against SETVI (Setaria viridis)
Description: as §1

[1] = system: monocotylidonous and dicotylidonous weed and crop plants; experiment: Herbicidal post-emergence action (other test plants); conditions: post-emergence method; for herbicidal effect against AVEFA (Avena fatua): 80 g/ha; for pest or weed control at 80 g/ha: 504 h, Avena fatua, read-out: herbicidal effect against AVEFA (Avena fatua)
Description: as §1

Compound	herbicidal effect against ALOMY (Alopecurus myosuroides) (Alopecurus myosuroides)	herbicidal effect against ECHCG (Echinochloa crus-galli) (Echinocloa crus-galli)	herbicidal effect against LOLMU (Lolium multiflorum) (Lolium multiflorum)	herbicidal effect against SETVI (Setaria viridis) (Setaria viridis)	herbicidal effect against AVEFA (Avena fatua) [1]	pest or weed control at 80 g/ha (Alopecurus myosuroides)	pest or weed control at 80 g/ha (Echinocloa crus-galli)	pest or weed control at 80 g/ha (Lolium multiflorum)	pest or weed control at 80 g/ha (Setaria viridis)	pest or weed control at 80 g/ha [1]
COc1cc(C)cc(C)c1C1=C(O)C2CC(=O)CC2C1=O (stereo not shown) [I-a-46]	0%	100%	0%	40%	0%	–	–	–	–	–
COc1cc(C)cc(C)c1C1=C(O)C2CC3(CC2C1=O)OCCCO3 (stereo not shown) [I-a-47]	20%	100%	100%	100%	80%	–	–	–	–	–
CCc1cc(C)cc(C)c1C1=C(O)C2CC(=O)CC2C1=O (stereo not shown) [I-a-56]	0%	100%	0%	100%	0%	–	–	–	–	–
CCc1cc(C)cc(C)c1C1=C(O)C2CC3(CC2C1=O)OCC=CCO3 (stereo not shown) [I-a-60]	100%	100%	100%	100%	90%	–	–	–	–	–
CCC(=O)OC1=C(c2c(CC)cc(C)cc2CC)C(=O)C2CC3(CC12)SCCCS3 (stereo not shown) [I-b-9]	90%	90%	40%	40%	0%	–	–	–	–	–
CCc1cc(C)cc(CC)c1C1=C(OC(=O)COC)C2CC3(CC2C1=O)SCCCS3 (stereo not shown) [I-b-10]	90%	90%	70%	70%	20%	–	–	–	–	–
Cc1cc(C)c(C2=C(OC(=O)C(C)(C)CCl)C3CC(=O)CC3C2=O)c(C)c1 (stereo not shown) [I-b-52]	0%	100%	0%	90%	0%	–	–	–	–	–
COCC(=O)OC1=C(c2c(C)cc(C)cc2C)C(=O)C2CC(=O)CC12 (stereo not shown) [I-b-53]	20%	100%	0%	90%	0%	–	–	–	–	–
Cc1cc(C)c(C2=C(OC(=O)C(C)C)C3CC(=O)CC3C2=O)c(C)c1 (stereo not shown) [I-b-54]	20%	100%	0%	100%	0%	–	–	–	–	–
CCC(C)(C)C(=O)OC1=C(c2c(C)cc(C)cc2C)C(=O)C2CC(=O)CC12 (stereo not shown) [I-b-55]	0%	90%	0%	90%	0%	–	–	–	–	–
Cc1cc(C)c(C2=C(OC(=O)CC(C)C)C3CC(=O)CC3C2=O)c(C)c1 (stereo not shown) [I-b-56]	20%	100%	0%	100%	0%	–	–	–	–	–
CCC(=O)OC1=C(c2c(C)cc(C)cc2C)C(=O)C2CC(=O)CC12 (stereo not shown) [I-b-57]	0%	100%	0%	100%	0%	–	–	–	–	–
C#CCON=C1CC2C(=O)C(c3c(C)cc(C)cc3C)=C(OC(=O)C(C)C)C2C1 (stereo not shown) [I-b-58]	0%	80%	60%	20%	0%	–	–	–	–	–
C#CCON=C1CC2C(=O)C(c3c(C)cc(C)cc3C)=C(OC(=O)C(C)(C)C)C2C1 (stereo not shown) [I-b-59]	20%	80%	80%	0%	0%	–	–	–	–	–
Cc1cc(C)c(C2=C(OC(=O)C(C)(C)C)C3CC(=O)CC3C2=O)c(C)c1 (stereo not shown) [I-b-60]	0%	100%	0%	80%	0%	–	–	–	–	–
CCc1cc(C)cc(C)c1C1=C(OC(=O)C(C)(C)C)C2CC(=O)CC2C1=O (stereo not shown) [I-b-71]	0%	100%	0%	100%	0%	–	–	–	–	–
CCc1cc(C)cc(CC)c1C1=C(OC(=O)OC)[C@H]2C[C@@]3(COC(C)(C)O3)C[C@H]2C1=O [I-c-1]	–	–	–	–	–	100%	60%	100%	40%	60%
CCOC(=O)OC1=C(c2c(CC)cc(C)cc2CC)C(=O)C2CC3(CC12)SCCCS3 (stereo not shown) [I-c-16]	0%	90%	80%	30%	30%	–	–	–	–	–
CCOC(=O)OC1=C(c2c(CC)cc(C)cc2CC)C(=O)C2CC(=O)CC12 (stereo not shown) [I-c-17]	–	–	–	–	–	30%	100%	40%	90%	0%
CCc1cc(C)cc(CC)c1C1=C(OC(=O)OC)C2CC3(CC2C1=O)SCCCS3 (stereo not shown) [I-c-20]	90%	100%	100%	100%	90%	–	–	–	–	–
CCOC(=O)OC1=C(c2c(CC)cc(C)cc2CC)C(=O)C2CC(=NOC(C)(C)C)CC12 (stereo not shown) [I-c-38]	70%	80%	90%	30%	0%	–	–	–	–	–
CCc1cc(C)cc(CC)c1C1=C(OC(=O)OC)C2CC(=O)CC2C1=O (stereo not shown) [I-c-42]	0%	100%	0%	100%	0%	–	–	–	–	–
CCc1cc(C)cc(CC)c1C1=C(O)[C@H]2CC3(C[C@H]2C1=O)SCCCS3 [I-f-1]	–	–	–	–	–	80%	90%	90%	80%	40%
Cc1cc(C)c(C2=C([O-])C3CC4(CC3C2=O)OC(C)CC(C)O4)c(C)c1.[Na+] (stereo not shown) [I-f-3]	90%	90%	90%	80%	0%	–	–	–	–	–
Cc1cc(C)c(C2=C([O-])C3CC4(CC3C2=O)OCCCCO4)c(C)c1.[Na+] (stereo not shown) [I-f-10]	100%	90%	100%	90%	80%	–	–	–	–	–
C=C1CC2C(=O)C(c3c(C)cc(C)cc3C)=C([O-])C2C1.[Na+] (stereo not shown) [I-f-23]	0%	90%	60%	80%	0%	–	–	–	–	–
